Where two headings read alike, the source gives them in different places.
How the values were obtained:
[1] = Stability in phosphate buffer by 1H NMR; type: physicochemical
Excerpt: Previously, even a low level of affinity was reported to be sufficient for the target-templated reaction. Therefore, to enable in situ click chemistry within the β-lactamase’s binding pocket, a series of bifunctional “warheads” displaying two defined features were designed. Firstly, the presence of the boronic acid moiety serves as an anchor to the SBLs catalytic serine. Secondly, the azido functionalisation guarantees the clickable building block for generation of bioactive triazoles within the target active site. Thus, one 2-azido-1-acylamino-ethaneboronic acid and three azidomethyl-phenylboronic acids were synthesised and characterised (Figure 3). […] Herein, the amide side chain from cephalothin is well known to interact with various β-lactamases through van der Waals and H-bonding interactions and can aid the process of recognition within the target. […] Other warheads inspired by previously developed acyclic boronic acids were not considered in this manuscript and will be explored in future works.

[2] = biological target: T1, KPC-2 (Klebsiella pneumoniae, UniProt Q9F663); details: KPC-2 20 mol%; warhead 3 + alkyne cluster; 37 °C, 24 h
T1 construct: made in house
Method: Starting from the azido-functionalised boronic acid 3, optimised conditions (see SI Table S2) were applied in combination with the 90-component alkyne library. The reactions were conducted in 0.2 mL microtubes in a 95:5 sodium phosphate 50 mM pH 7.0:DMSO mixture (final volume 100 µL), stirring at 300 rpm at 37 °C for 24 h (Scheme 1).
The experiments were conducted in triplicate, using a reaction mixture containing one equivalent of warhead 3, five equivalents of each alkyne cluster (9 alkynes), and 20 mol% KPC-2 as the catalyst. Product formation was monitored directly from the crude mixture using a hybrid quadrupole orbitrap LC–MS system in the ESI+ or ESI- mode after 24 h. Peak areas of the desired products were compared across three conditions: with KPC-2, without any enzyme, and with bovine serum albumin (BSA). […] The resulting ratio, named as the amplification coefficient (AC), was calculated from the peak area of the product obtained in the presence of KPC-2 vs. the one acquired with the controls.
(§1) Binary and multicomponent KTGS. […] The microtube was shaken at 300 rpm at 37 °C for 24 h. Reactions were transferred into a LC–MS vial and directly injected (10 µL) for liquid chromatography–mass spectrometry (LC–MS). Reactions were analysed with an Ultimate 3000 UHPLC coupled to a Q-exactive hybrid quadrupole-orbitrap mass spectrometer via an HESI-II heated electrospray ionisation source. The chromatographic separation was performed injecting a 10 µL sample volume on a Hypersil Gold C18 100 × 2.1 mm, 1.9 µm column (Thermo Fisher Scientific), kept at 30 °C eluting with 0.3 mL/min flow of ultrapure water (A) and methanol (B), both with 0.1% formic acid as mobile phase. […] A data-dependent mass spectrometric data acquisition strategy was used for full MS/DD-MS2. […] An inclusion list was eventually used to target the MS2 spectra acquisition of preferred ion species. Detection was based on calculated [M+H]^+ and [M−H]^− molecular ions with a 5 ppm accuracy tolerance for their respective ion chromatogram extraction. Peak retention time and area of detected target compounds was used for their detection and semi-quantitative evaluation in between reaction batches.
(§2) For controls (buffer and BSA), AmpC/KPC-2 is replaced with no enzyme (buffer volume 95 µL) and BSA (stock 100 µM, final concentration 5 µM, buffer volume 90 µL). Hits were identified in each cluster by mass and retention time and compared with both controls (buffer and BSA) and synthetically prepared triazoles obtained in mixtures.

[3] = biological target: T1, KPC-2; test: Competitive inhibition assay with nitrocefin, Ki; type: biochemical; details: for improvement compared with the warhead activity: Ki vs KPC-2 relative to warhead 3 (Ki = 2.3 µM)
Method: (§3) The β-lactamases used in the present study were from a Clinical Biochemistry Laboratory collection (Department of Biotechnological and Applied Clinical Sciences, University of L’Aquila, L’Aquila, Italy). […] The concentration of each enzyme was determined by a Bradford assay.
(§4) The plot v0/vi versus [I] yielded a straight line of slope KM/(KM + S) × Ki.
AC = Amplification coefficient. In the AC column, between brackets reports the regioisomeric ratio observed (1,4- vs. 1,5-) and bold reports the synthesised regioisomer. Light blue indicates the compounds obtained from the KPC-2 screening.

[4] = biological target: T2, AmpC (Escherichia coli, UniProt P00811); design: made in house; details: AmpC 20 mol%; warhead 3 + alkyne cluster; 37 °C, 24 h
Method: Following the same conditions used for the multicomponent screening with KPC-2, the in situ click chemistry experiment was performed using AmpC as template.
as §1, §2

[5] = test system: O=C(Cc1cccs1)N[C@@H]1C(=O)N2C(C(=O)O)=C(/C=C/c3ccc([N+](=O)[O-])cc3[N+](=O)[O-])CS[C@H]12; test: purified protein, by the assay type
[6] = biological target: T2, AmpC; test: Competitive inhibition assay with nitrocefin, Ki; type: biochemical; design: made in house; details: AmpC; values in nM
Method: as §3, §4
Figure 9 Compounds synthesised and their biological evaluation. AC = Amplification coefficient. […] Light blue indicates the compounds from the AmpC screening.

[7] = biological target: OXA-48 (Klebsiella pneumoniae, UniProt Q6XEC0); test: % inhibition at fixed concentration; type: biochemical; details: OXA-48, class D; inhibitor 200 µM; substrate IMI
Method: (§5) Selection of an appropriate warhead-bearing reagent is crucial for achieving a successful in situ click chemistry. Thus, we assessed the inhibitory activity of the selected warheads against a pool of different β-lactamases to verify their binding specificity for the target. The affinity (inhibitory ability) of 2-4 against 12 representative β-lactamases from class A, B, C, and D was assessed as the percentage of inhibition at a fixed concentration of 200 µM (Table 1).
as §3, §4
(§6) For the β-lactamases test at a fixed concentration previously reported in Table 1, the following conditions were applied (Table 3): […]

[8] = biological target: T1, KPC-2; test: % inhibition at fixed concentration; type: biochemical
Method: as §5, §3, §4, §6

[9] = biological target: T3, IMP-1 (Serratia marcescens, UniProt P52699); test: % inhibition at fixed concentration; type: biochemical
T3 construct: made in house
Method: as §5, §3, §4, §6

[10] = biological target: T4, VIM-1 (Pseudomonas aeruginosa, UniProt A0A0F7KYQ8); test: % inhibition at fixed concentration; type: biochemical
T4 construct: made in house
Method: as §5, §3, §4, §6

[11] = biological target: CMY-2 (Klebsiella pneumoniae, UniProt Q48434); test: % inhibition at fixed concentration; type: biochemical
Method: as §5, §3, §4, §6

[12] = biological target: KPC-53 (Klebsiella pneumoniae, UniProt Q9F663, DUP166-167/H272Y); test: % inhibition at fixed concentration; type: biochemical
Method: as §5, §3, §4, §6

[13] = biological target: OXA-24 (Acinetobacter baumannii, UniProt Q8RLA6); test: % inhibition at fixed concentration; type: biochemical
Method: as §5, §3, §4, §6

[14] = biological target: T5, CTX-M-15 (Escherichia coli, UniProt Q9EXV5); test: % inhibition at fixed concentration; type: biochemical
T5 construct: made in house
Method: as §5, §3, §4, §6

[15] = biological target: ADC-25 (Acinetobacter baumannii, UniProt A8QIF8); test: % inhibition at fixed concentration; type: biochemical
Method: as §5, §3, §4, §6

[16] = biological target: NDM-1 (Klebsiella pneumoniae, UniProt C7C422); test: % inhibition at fixed concentration; type: biochemical; design: made in house
Method: as §5, §3, §4, §6

[17] = biological target: T2, AmpC; test: % inhibition at fixed concentration; type: biochemical; design: made in house
Excerpt: Selection of an appropriate warhead-bearing reagent is crucial for achieving a successful in situ click chemistry. Thus, we assessed the inhibitory activity of the selected warheads against a pool of different β-lactamases to verify their binding specificity for the target. […]
as §3, §4, §6

[18] = biological target: SHV-12 (Klebsiella pneumoniae, UniProt P0AD64, E235K/G234S/L31Q); test: % inhibition at fixed concentration; type: biochemical; details: SHV-12, class A; inhibitor 200 µM; substrate NCF
[19] = biological target: T1, KPC-2; design: method as in PMID 35792385; details: ref [58]; cited from earlier work
[20] = test system: C[C@@H](O)[C@H]1C(=O)N2C(C(=O)O)=C(S[C@@H]3CN[C@H](C(=O)N(C)C)C3)[C@H](C)[C@H]12; test: purified protein, by the assay type; details: other: VIM-1, HEPES 20 mM pH 7.0 + 20 µM Zn
[21] = test system: O=C(Cc1cccs1)N[C@@H]1C(=O)N2C(C(=O)O)=C(/C=C/c3ccc([N+](=O)[O-])cc3[N+](=O)[O-])CS[C@H]12; test: KM of reporter substrate (Hanes-Woolf); type: biochemical; details: pH 7.0
Method: The β-lactamases used in the present study were from a Clinical Biochemistry Laboratory collection (Department of Biotechnological and Applied Clinical Sciences, University of L’Aquila, L’Aquila, Italy). All enzymes show a purity degree of higher than 95%. The concentration of each enzyme was determined by a Bradford assay.

T2 sequence (P00811 20-377): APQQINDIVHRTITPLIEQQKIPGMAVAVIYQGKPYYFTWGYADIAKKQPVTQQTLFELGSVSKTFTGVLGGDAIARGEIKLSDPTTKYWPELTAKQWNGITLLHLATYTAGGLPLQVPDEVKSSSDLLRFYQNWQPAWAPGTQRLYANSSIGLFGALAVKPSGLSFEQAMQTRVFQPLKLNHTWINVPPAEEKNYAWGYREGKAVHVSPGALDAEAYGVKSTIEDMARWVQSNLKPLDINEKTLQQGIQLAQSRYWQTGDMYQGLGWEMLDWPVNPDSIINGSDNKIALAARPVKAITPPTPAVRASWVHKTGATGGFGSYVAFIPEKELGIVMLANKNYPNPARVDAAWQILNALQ
T5 sequence (Q9EXV5 entry or part of it): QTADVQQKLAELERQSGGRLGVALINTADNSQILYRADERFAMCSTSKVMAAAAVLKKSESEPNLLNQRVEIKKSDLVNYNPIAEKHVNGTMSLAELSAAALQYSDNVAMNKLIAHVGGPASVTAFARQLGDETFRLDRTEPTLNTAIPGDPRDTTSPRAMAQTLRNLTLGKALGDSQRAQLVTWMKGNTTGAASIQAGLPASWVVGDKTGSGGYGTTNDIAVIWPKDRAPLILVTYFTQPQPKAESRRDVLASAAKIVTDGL

[N-]=[N+]=NCC(NC(=O)Cc1cccs1)B(O)O (stereo not shown) [compound 1]
stability in phosphate buffer [1]: partially degrades

O=S(=O)(Cc1cn(Cc2cccc(B(O)O)c2)nn1)c1ccccc1 [compound 6]
AC (amplification coefficient) [2]: 3-4
Ki [3]: 800 nM
improvement compared with the warhead activity [3]: 3 fold

C#CCNC(=O)c1ccc(C(=O)OC)cc1 [Al-88]
AC (amplification coefficient) [4]: 3-4

CTX-M-15 (Escherichia coli)
Km ([5]; other: CTX-M-15, NaPi 50 mM pH 7.0): 35 ± 1 µM µM

O=S(=O)(NCc1cn(Cc2cccc(B(O)O)c2)nn1)C1CCCCC1 [compound 10]
Ki [6]: 600 nM
Ki [3]: 670 ± 100 nM

C#CCOc1cccc(C(N)=O)c1 [Al-32]
AC (amplification coefficient) [2]: exceeding three

COC(=O)c1cccc(CS(=O)(=O)NCc2cn(Cc3cccc(B(O)O)c3)nn2)c1 [compound 7]
AC (amplification coefficient) [4]: 4-5
AC (amplification coefficient) [2]: 5-6
Ki [6]: 300 nM
Ki [3]: 1700 nM

COC(=O)c1ccc(C(=O)NCc2cn(Cc3cccc(B(O)O)c3)nn2)cc1 [compound 12]
AC (amplification coefficient) [4]: 3-4
Ki [6]: 400 nM

NC(=O)c1cccc(OCc2cn(Cc3cccc(B(O)O)c3)nn2)c1 [compound 5]
AC (amplification coefficient) [2]: 3-4
Ki ([3]; KPC-2, values in nM): 730 nM
improvement compared with the warhead activity [3]: 3 fold

OXA-24 (Acinetobacter baumannii)
Km ([5]; other: OXA-24, NaPi 50 mM pH 7.0): 29 ± 1 µM µM

[N-]=[N+]=NCc1ccc(B(O)O)cc1 [compound 4, (4-(azidomethyl)phenyl)boronic acid]
inhibition at 200 µM [7]: < 1%
inhibition at 100 µM [8]: 72%
inhibition at 200 µM [9]: 22%
inhibition at 200 µM [10]: 33%
inhibition at 200 µM [11]: 67%
inhibition at 200 µM [12]: 55%
inhibition at 200 µM [13]: 26%
inhibition at 200 µM [14]: 22%
inhibition at 200 µM [15]: 46%
inhibition at 200 µM [16]: 24%
inhibition at 100 µM [17]: 81%
% of inhibition [18]: 48%
activity vs. KPC-2 [19]: sub-µM

VIM-1 (Pseudomonas aeruginosa PAO1)
Km [20]: 130 ± 4 µM µM

ADC-25 (Acinetobacter baumannii)
Km [21]: 120 ± 3 µM µM
